Laboratory results taken from patent US12082597B2, “Supplemented fish feed” (CAN TECHNOLOGIES, INC., priority 2013, dated 2024).
Read-outs that look alike come from different tables or passages of the source.

Assays:
DT50 in sea water = format: physicochemical; settings: 16° C.; Not GLP/GEP
[1] = Half-life in fish-farm sediment (Skye); format: physicochemical; settings: Not GLP/GEP
Experimental: In common with most plant-derived biocides, the azadirachtin terpenoids have a short half-life in the environment. They hydrolyse in water, and their disappearance is faster the more alkaline the water. For example, at pH 7.0 and 20° C. the half-life of azadirachtin terpenoids is 19.5 days, and at pH 8.0 it is 4.4 days. As seawater is slightly alkaline, (pH 7.5-8.4) any dissolved azadirachtin terpenoids will have largely disappeared within a week. Azadirachtin is rapidly catabolized by the microflora in soil. […] Preliminary studies with some sediment from below cages in Skye (Scotland) and subsequently infused with NeemAzal® in the laboratory have indicated a half-life of 3 weeks for NeemAzal® Technical added to the sediment and incubated at 15° C. Unchanged excreted material will be infinitely diluted in the water and hydrolyzed within days into small fragments without biological activity.

[2] = cited from earlier work
[3] = 20° C.; cited from earlier work

SMILES: C/C=C(\C)C(=O)O[C@H]1C[C@@H](OC(C)=O)[C@@]2(C(=O)OC)CO[C@H]3[C@@H](O)[C@@](C)([C@]45O[C@@]4(C)[C@H]4C[C@@H]5O[C@@H]5OC=C[C@@]54O)[C@H]4[C@]1(CO[C@]4(O)C(=O)OC)[C@@H]32 (relative stereo) [Azadirachtin A, dimethyl [2aR-[2aα,3β,4β(1aR*,2S*,3aS*,6aS*,7S*,7aS*),4aβ,5α,7aS*,8β(E),10β,10aα,10bβ]]-10-(acetyloxy)octahydro-3,5-dihydroxy-4-methyl-8-[(2-methyl-1-oxo-2-butenyl)oxy]-4-(3a,6a,7,7a)-tetrahydro-6a-hydroxy-7a-methyl-2,7-methanofuro[2,3-b]oxireno[e]oxepin-1a(2H)-yl)-1H,7H-naphtho-[1,8-bc:4,4a-c′]difuran-5,10a(8H)-dicarboxylate]
- DT50 in sea water (DT50 in sea water): 8 days
- DT50 in fish-farm sediment (Skye) [1]: 3 weeks
- DT50 in fresh water ([2]; pH 4.0): 50 days
- DT50 in fresh water ([2]; pH 7.0): 19 days
- DT50 in fresh water ([2]; pH 8.0): 4 days
- DT50 in field soil [3]: 4 to 5 days
